Laboratory results taken from US20240050428A1 (Cullgen (Shanghai), Inc., priority 2020, published 2024).
Where two headings read alike, the source gives them in different places.

How the values were obtained:
MOLM-13 cells = assay: Cell viability assay (CellTiter-Glo) in MOLM-13 cells, alone or with gilteritinib; format: cell-based; conditions: Homo sapiens, MOLM-13, 72 h, MOLM-13 cells, three days, CellTiter-Glo
MV4;11 cells = assay: Cell viability assay (CellTiter-Glo) in MV4;11 cells, alone or with gilteritinib; format: cell-based; conditions: Homo sapiens, MV4-11, 72 h, MV4;11 cells, three days, CellTiter-Glo, read-out: MV4
[1] = compound alone (without gilteritinib), read-out: MOLM-13 IC50
[2] = compound with gilteritinib 20 nM, read-out: MOLM-13 IC50 gilteritinib
[3] = compound alone (without gilteritinib), 11 IC50
[4] = compound with gilteritinib 10 nM, 11 IC50 gilteritinib

SMILES	IC50 (MOLM-13 cells; [1]) [nM]	IC50 (MOLM-13 cells; [2]) [nM]	IC50 (MV4;11 cells; [3]) [nM]	IC50 (MV4;11 cells; [4]) [nM]
CNc1cccnc1-c1cn([C@H]2C[C@H](CNc3ccc4c(c3)C(=O)N(C3CCC(=O)NC3=O)C4=O)C2)nc1C1CC1 (stereo partly drawn) [GS-620, 5-(((trans-3-(3-Cyclopropyl-4-(3-(methylamino)pyridin-2-yl)-1H-pyrazol-1-yl)cyclobutyl)methyl)amino)-2-(2,6-dioxopiperidin-3-yl)isoindoline-1,3-dione]	100 to 1000	< 10	10 to 100	< 10
CN(C)c1cccnc1-c1cn([C@H]2C[C@H](CNc3ccc4c(c3)C(=O)N(C3CCC(=O)NC3=O)C4=O)C2)nc1C1CC1 (stereo partly drawn) [GS-621, 5-(((trans-3-(3-Cyclopropyl-4-(3-(dimethylamino)pyridin-2-yl)-1H-pyrazol-1-yl)cyclobutyl)methyl)amino)-2-(2,6-dioxopiperidin-3-yl)isoindoline-1,3-dione]	10 to 100	< 10	10 to 100	< 10
CC(C)n1ccc2cnc(-c3cn([C@H]4C[C@H](CNc5ccc6c(c5)C(=O)N(C5CCC(=O)NC5=O)C6=O)C4)nc3C3CC3)cc21 (stereo partly drawn) [GS-622, 5-(((trans-3-(3-Cyclopropyl-4-(1-isopropyl-1H-pyrrolo[3,2-c]pyridin-6-yl)-1H-pyrazol-1-yl)cyclobutyl)methyl)amino)-2-(2,6-dioxopiperidin-3-yl)isoindoline-1,3-dione]	10 to 100	< 10	10 to 100	< 10
CC(C)n1ccc2c(-c3cn([C@H]4C[C@H](CNc5ccc6c(c5)C(=O)N(C5CCC(=O)NC5=O)C6=O)C4)nc3C3CC3)nccc21 (stereo partly drawn) [GS-623, 5-(((trans-3-(3-Cyclopropyl-4-(1-isopropyl-1H-pyrrolo[3,2-c]pyridin-4-yl)-1H-pyrazol-1-yl)cyclobutyl)methyl)amino)-2-(2,6-dioxopiperidin-3-yl)isoindoline-1,3-dione]	10 to 100	< 10	10 to 100	< 10
O=C1CCC(N2C(=O)c3ccc(NC[C@H]4C[C@H](n5cc(-c6cnc7c(C8CNC8)cccc7n6)c(C6CC6)n5)C4)cc3C2=O)C(=O)N1 (stereo partly drawn) [GS-624, 5-(((trans-3-(4-(5-(Azetidin-3-yl)quinoxalin-2-yl)-3-cyclopropyl-1H-pyrazol-1-yl)cyclobutyl)methyl)amino)-2-(2,6-dioxopiperidin-3-yl)isoindoline-1,3-dione]	> 1000	10 to 100	100 to 1000	10 to 100
O=C1CCC(N2C(=O)c3ccc(NCCC[C@H]4C[C@H](n5cc(-c6nccc7cccnc67)c(C6CC6)n5)C4)cc3C2=O)C(=O)N1 (stereo partly drawn) [GS-625, 5-((3-(trans-3-(3-Cyclopropyl-4-(1,7-naphthyridin-8-yl)-1H-pyrazol-1-yl)cyclobutyl)propyl)amino)-2-(2,6-dioxopiperidin-3-yl)isoindoline-1,3-dione]	100 to 1000	10 to 100	10 to 100	< 10
O=C1CCC(N2C(=O)c3ccc(NCCC[C@H]4C[C@H](n5cc(-c6nccc7[nH]ncc67)c(C6CC6)n5)C4)cc3C2=O)C(=O)N1 (stereo partly drawn) [GS-626, 5-((3-(trans-3-(3-Cyclopropyl-4-(1H-pyrazolo[4,3-c]pyridin-4-yl)-1H-pyrazol-1-yl)cyclobutyl)propyl)amino)-2-(2,6-dioxopiperidin-3-yl)isoindoline-1,3-dione]	> 1000	10 to 100	10 to 100	10 to 100
O=C1CCC(N2C(=O)c3ccc(CC[C@H]4C[C@H](n5cc(-c6cnc7ccccc7n6)c(C6CC6)n5)C4)cc3C2=O)C(=O)N1 (stereo partly drawn) [GS-627, 5-(2-(trans-3-(3-Cyclopropyl-4-(quinoxalin-2-yl)-1H-pyrazol-1-yl)cyclobutyl)ethyl)-2-(2,6-dioxopiperidin-3-yl)isoindoline-1,3-dione]	> 1000	> 1000	> 1000	> 1000
O=C1CCC(N2C(=O)c3ccc(NCCC[C@H]4C[C@H](n5cc(-c6nccc7cnccc67)c(C6CC6)n5)C4)cc3C2=O)C(=O)N1 (stereo partly drawn) [GS-628, 5-((3-(trans-3-(3-Cyclopropyl-4-(2,6-naphthyridin-1-yl)-1H-pyrazol-1-yl)cyclobutyl)propyl)amino)-2-(2,6-dioxopiperidin-3-yl)isoindoline-1,3-dione]	> 1000	10 to 100	> 1000	10 to 100
Cc1nc(-c2cn([C@H]3C[C@H](CCc4ccc5c(c4)C(=O)N(C4CCC(=O)NC4=O)C5=O)C3)nc2C2CC2)ccc1F (stereo partly drawn) [GS-629, 5-(2-(trans-3-(3-Cyclopropyl-4-(5-fluoro-6-methylpyridin-2-yl)-1H-pyrazol-1-yl)cyclobutyl)ethyl)-2-(2,6-dioxopiperidin-3-yl)isoindoline-1,3-dione]	> 1000	100 to 1000	> 1000	100 to 1000
O=C1CCC(N2C(=O)c3ccc(NCCC[C@H]4C[C@H](n5cc(-c6nccc7ccncc67)c(C6CC6)n5)C4)cc3C2=O)C(=O)N1 (stereo partly drawn) [GS-630, 5-((3-(trans-3-(3-Cyclopropyl-4-(2,7-naphthyridin-1-yl)-1H-pyrazol-1-yl)cyclobutyl)propyl)amino)-2-(2,6-dioxopiperidin-3-yl)isoindoline-1,3-dione]	> 1000	< 10	100 to 1000	< 10
O=C1CCC(N2C(=O)c3ccc(NC[C@H]4C[C@H](n5cc(C6CCCC6)c(C6CC6)n5)C4)cc3C2=O)C(=O)N1 (stereo partly drawn) [GS-631, 5-(((trans-3-(4-Cyclopentyl-3-cyclopropyl-1H-pyrazol-1-yl)cyclobutyl)methyl)amino)-2-(2,6-dioxopiperidin-3-yl)isoindoline-1,3-dione]	100 to 1000	10 to 100	100 to 1000	10 to 100
O=C1CCC(N2C(=O)c3ccc(NC[C@H]4C[C@H](n5cc(C6CC6)c(C6CC6)n5)C4)cc3C2=O)C(=O)N1 (stereo partly drawn) [GS-632, 5-(((trans-3-(3,4-Dicyclopropyl-1H-pyrazol-1-yl)cyclobutyl)methyl)amino)-2-(2,6-dioxopiperidin-3-yl)isoindoline-1,3-dione]	> 1000	100 to 1000	100 to 1000	100 to 1000
CC1CCCCC1c1cn([C@H]2C[C@H](CNc3ccc4c(c3)C(=O)N(C3CCC(=O)NC3=O)C4=O)C2)nc1C1CC1 (stereo partly drawn) [GS-633, 5-(((trans-3-(3-Cyclopropyl-4-(2-methylcyclohexyl)-1H-pyrazol-1-yl)cyclobutyl)methyl)amino)-2-(2,6-dioxopiperidin-3-yl)isoindoline-1,3-dione]	10 to 100	10 to 100	10 to 100	< 10
O=C1CCC(N2C(=O)c3ccc(NC[C@H]4C[C@H](n5cc(C6CCCCC6O)c(C6CC6)n5)C4)cc3C2=O)C(=O)N1 (stereo partly drawn) [GS-634, 5-(((trans-3-(3-Cyclopropyl-4-(2-hydroxycyclohexyl)-1H-pyrazol-1-yl)cyclobutyl)methyl)amino)-2-(2,6-dioxopiperidin-3-yl)isoindoline-1,3-dione]	100 to 1000	10 to 100	10 to 100	< 10
Cc1nc(-c2cn([C@H]3C[C@H](CNc4ccc5c(c4)C(=O)N(C4CCC(=O)NC4=O)C5=O)C3)nc2C(F)F)ccc1F (stereo partly drawn) [GS-635, 5-(((trans-3-(3-(Difluoromethyl)-4-(5-fluoro-6-methylpyridin-2-yl)-1H-pyrazol-1-yl)cyclobutyl)methyl)amino)-2-(2,6-dioxopiperidin-3-yl)isoindoline-1,3-dione]	10 to 100	< 10	10 to 100	< 10
